Measurements published in ChEMBL document CHEMBL4265878, “Dual-Specificity Tyrosine Phosphorylation-Regulated Kinase 1A (DYRK1A) Inhibitors as Potential Therapeutics” (J Med Chem, 2018).
Each block holds one compound with its values, some of them ahead of it.

Columns and labels:
[1] = molecular target: T1, Dual specificity tyrosine-phosphorylation-regulated kinase 1A (Homo sapiens, UniProt Q13627); assay: Inhibition of DYRK1A (unknown origin) at 10 uM relative to control
[2] = molecular target: T2, Dual specificity tyrosine-phosphorylation-regulated kinase 1B (Homo sapiens, UniProt Q9Y463); assay: Inhibition of human recombinant full length N-terminal GST-tagged DYRK1B expressed in baculovirus expression system using DYRKtide-F as substrate after 1 hr by electrophoretic analysis
T2 sequence (Q9Y463 whole entry, the tested form may be a part): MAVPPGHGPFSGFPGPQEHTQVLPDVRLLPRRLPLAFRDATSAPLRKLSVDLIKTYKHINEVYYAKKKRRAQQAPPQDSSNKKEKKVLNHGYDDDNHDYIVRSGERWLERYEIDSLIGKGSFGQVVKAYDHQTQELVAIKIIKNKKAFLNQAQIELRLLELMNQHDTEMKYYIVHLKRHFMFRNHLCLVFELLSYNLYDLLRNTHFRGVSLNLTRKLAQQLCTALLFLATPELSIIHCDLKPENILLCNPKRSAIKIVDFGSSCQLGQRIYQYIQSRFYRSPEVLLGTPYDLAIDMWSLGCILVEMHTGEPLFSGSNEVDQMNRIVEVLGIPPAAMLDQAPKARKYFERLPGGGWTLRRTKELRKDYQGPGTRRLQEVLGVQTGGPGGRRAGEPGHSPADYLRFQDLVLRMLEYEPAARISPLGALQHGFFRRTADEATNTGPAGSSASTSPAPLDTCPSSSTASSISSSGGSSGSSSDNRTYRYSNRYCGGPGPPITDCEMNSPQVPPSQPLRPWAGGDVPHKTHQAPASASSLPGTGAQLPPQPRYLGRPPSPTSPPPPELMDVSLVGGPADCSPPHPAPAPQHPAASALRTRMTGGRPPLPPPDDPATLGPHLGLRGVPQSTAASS

[3] = molecular target: Cyclin-dependent kinase 9 (Homo sapiens, UniProt P50750); assay: Inhibition of human full-length N-terminal GST-fused CDK9 (1 to 372 residues) expressed in baculovirus expression system using MBP as substrate after 100 mins by TR-FRET assay
Cyclin-dependent kinase 9, sequence (P50750 whole entry, the tested form may be a part): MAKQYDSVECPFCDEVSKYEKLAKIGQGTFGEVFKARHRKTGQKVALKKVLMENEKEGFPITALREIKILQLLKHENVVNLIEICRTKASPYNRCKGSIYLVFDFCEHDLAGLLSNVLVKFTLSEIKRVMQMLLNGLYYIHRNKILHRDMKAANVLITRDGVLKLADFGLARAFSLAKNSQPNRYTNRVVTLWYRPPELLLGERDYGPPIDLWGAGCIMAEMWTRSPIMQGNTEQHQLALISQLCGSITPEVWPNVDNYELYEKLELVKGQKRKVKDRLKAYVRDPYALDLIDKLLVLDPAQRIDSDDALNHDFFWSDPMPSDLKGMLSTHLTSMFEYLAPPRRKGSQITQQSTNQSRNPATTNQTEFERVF

Casein kinase 2 = Casein kinase 2 (Rattus norvegicus, UniProt P19139); assay: Inhibition of rat liver CK2 using RRRADDSDDDDD as substrate after 10 mins in presence of [gamma-33P]ATP
Casein kinase 2, sequence (P67874 whole entry): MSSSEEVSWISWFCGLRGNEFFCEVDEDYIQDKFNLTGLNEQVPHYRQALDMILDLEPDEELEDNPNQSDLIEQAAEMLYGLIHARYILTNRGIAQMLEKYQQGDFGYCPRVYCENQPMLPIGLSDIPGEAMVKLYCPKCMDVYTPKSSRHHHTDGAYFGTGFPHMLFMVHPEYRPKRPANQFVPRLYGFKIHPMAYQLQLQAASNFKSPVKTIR
Casein kinase 2, sequence (P19139 whole entry): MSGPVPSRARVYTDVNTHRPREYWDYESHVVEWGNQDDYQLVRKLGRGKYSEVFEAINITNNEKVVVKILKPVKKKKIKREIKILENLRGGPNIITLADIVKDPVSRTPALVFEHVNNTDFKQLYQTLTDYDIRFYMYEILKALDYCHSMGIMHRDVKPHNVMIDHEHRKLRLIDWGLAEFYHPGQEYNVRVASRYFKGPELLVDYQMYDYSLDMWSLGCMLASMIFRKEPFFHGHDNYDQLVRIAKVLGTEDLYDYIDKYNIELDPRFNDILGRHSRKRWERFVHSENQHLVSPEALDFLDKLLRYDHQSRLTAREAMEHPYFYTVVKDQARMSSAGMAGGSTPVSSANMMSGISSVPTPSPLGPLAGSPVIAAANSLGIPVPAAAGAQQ

[4] = molecular target: T3, MAP kinase-activated protein kinase 5 (Homo sapiens, UniProt Q8IW41); assay: Inhibition of PRAK (unknown origin)
T3 sequence (Q8IW41 whole entry): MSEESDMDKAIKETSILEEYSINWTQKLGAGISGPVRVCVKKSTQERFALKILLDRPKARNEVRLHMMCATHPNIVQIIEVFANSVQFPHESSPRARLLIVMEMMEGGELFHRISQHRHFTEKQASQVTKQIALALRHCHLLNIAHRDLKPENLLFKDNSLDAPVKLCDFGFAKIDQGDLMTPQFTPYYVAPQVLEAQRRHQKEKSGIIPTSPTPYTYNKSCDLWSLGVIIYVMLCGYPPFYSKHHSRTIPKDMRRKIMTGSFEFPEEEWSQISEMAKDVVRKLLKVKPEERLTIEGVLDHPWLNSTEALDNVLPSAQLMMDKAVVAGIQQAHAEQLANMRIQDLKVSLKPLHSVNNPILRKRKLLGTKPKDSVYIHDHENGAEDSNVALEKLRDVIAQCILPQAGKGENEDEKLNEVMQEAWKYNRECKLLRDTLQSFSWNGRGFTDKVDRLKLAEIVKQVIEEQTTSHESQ

[5] = molecular target: T1, Dual specificity tyrosine-phosphorylation-regulated kinase 1A; assay: Inhibition of DYRK1A (unknown origin)
[6] = Inhibition of CLK (unknown origin); design: species or system Homo sapiens
[7] = molecular target: Glycogen synthase kinase-3 (Homo sapiens, UniProt P49840+P49841); assay: Inhibition of GSK-3 (unknown origin); type: protein assay
[8] = molecular target: T4, Dual specificity tyrosine-phosphorylation-regulated kinase 2 (Homo sapiens, UniProt Q92630); assay: Inhibition of DYRK2 (unknown origin)
T4 sequence (Q92630 whole entry): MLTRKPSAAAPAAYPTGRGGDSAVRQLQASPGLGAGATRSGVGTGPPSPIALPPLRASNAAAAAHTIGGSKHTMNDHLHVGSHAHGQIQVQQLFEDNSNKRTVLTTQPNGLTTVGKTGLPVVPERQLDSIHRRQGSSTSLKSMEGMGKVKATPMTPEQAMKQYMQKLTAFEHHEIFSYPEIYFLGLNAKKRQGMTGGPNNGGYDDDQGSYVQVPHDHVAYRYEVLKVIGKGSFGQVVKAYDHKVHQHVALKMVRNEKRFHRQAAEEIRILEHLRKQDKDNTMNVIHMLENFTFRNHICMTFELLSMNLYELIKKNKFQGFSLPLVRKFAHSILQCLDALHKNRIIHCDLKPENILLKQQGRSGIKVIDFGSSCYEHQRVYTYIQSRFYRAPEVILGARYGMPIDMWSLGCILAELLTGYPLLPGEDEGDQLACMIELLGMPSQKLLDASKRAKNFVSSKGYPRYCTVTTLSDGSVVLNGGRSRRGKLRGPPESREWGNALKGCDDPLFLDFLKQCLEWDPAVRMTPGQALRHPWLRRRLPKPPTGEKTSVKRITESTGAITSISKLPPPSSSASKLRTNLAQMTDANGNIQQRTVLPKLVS

[9] = molecular target: Dual specificity protein kinase CLK2 (Homo sapiens, UniProt P49760); assay: Inhibition of CLK2 (unknown origin)
Dual specificity protein kinase CLK2, sequence (P49760 whole entry): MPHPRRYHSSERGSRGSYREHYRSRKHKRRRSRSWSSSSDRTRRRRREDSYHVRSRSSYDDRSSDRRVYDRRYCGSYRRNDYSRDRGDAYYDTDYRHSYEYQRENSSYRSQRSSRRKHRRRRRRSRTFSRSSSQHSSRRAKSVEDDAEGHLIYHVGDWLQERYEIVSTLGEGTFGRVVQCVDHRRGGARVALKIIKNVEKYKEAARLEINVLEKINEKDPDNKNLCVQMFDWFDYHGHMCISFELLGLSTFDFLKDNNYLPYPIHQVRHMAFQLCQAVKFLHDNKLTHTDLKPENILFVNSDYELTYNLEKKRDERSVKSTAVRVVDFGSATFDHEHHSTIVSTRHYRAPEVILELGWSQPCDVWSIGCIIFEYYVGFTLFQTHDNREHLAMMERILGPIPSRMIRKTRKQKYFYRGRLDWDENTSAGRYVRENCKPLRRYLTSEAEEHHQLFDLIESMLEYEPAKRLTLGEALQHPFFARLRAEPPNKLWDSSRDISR

[10] = molecular target: Dual specificity protein kinase CLK1 (Homo sapiens, UniProt P49759); assay: Inhibition of CLK1 (unknown origin)
Dual specificity protein kinase CLK1, sequence (P49759 whole entry): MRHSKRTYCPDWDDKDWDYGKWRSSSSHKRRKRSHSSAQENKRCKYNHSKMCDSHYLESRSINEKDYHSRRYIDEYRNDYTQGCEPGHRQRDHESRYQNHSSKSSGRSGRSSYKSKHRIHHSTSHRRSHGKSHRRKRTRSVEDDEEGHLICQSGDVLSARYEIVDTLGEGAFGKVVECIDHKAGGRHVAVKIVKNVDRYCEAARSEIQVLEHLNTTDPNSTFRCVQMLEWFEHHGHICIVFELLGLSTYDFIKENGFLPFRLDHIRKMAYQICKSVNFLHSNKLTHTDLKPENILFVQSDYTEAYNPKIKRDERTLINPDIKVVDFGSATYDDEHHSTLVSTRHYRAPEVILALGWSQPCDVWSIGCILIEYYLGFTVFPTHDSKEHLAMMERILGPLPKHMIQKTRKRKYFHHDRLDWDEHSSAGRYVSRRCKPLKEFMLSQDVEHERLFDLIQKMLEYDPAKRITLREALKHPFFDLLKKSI

[11] = molecular target: T5, Amine oxidase [flavin-containing] A (Homo sapiens, UniProt P21397); assay: Inhibition of human recombinant MAO-A after 1 hr by MAO-Glo assay
T5 sequence (P21397 whole entry): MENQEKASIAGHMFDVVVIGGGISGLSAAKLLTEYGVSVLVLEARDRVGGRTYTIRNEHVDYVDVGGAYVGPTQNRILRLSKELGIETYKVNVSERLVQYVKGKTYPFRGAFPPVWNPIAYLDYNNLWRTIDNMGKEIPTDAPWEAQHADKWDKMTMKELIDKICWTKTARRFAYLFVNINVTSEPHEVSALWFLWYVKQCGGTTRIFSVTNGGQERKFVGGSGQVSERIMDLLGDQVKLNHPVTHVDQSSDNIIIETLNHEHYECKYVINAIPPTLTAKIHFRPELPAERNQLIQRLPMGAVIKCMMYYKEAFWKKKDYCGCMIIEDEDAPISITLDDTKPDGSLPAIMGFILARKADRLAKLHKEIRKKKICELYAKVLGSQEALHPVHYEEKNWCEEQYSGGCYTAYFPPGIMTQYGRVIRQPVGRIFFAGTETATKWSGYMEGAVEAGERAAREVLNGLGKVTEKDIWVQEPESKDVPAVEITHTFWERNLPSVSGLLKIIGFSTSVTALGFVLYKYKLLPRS

[12] = molecular target: T1, Dual specificity tyrosine-phosphorylation-regulated kinase 1A; assay: Inhibition of GST-tagged DYRK1A (unknown origin) expressed in Escherichia coli DH5alpha at 1 uM using RRRFRPASPLRGPPK as substrate after 30 mins by kinase-glo luminescence assay relative to control
[13] = molecular target: Aurora kinase B (Homo sapiens) (UniProt Q96GD4); assay: Inhibition of aurora B (unknown origin) at 50 uM
Aurora kinase B (Homo sapiens), sequence (Q96GD4 whole entry): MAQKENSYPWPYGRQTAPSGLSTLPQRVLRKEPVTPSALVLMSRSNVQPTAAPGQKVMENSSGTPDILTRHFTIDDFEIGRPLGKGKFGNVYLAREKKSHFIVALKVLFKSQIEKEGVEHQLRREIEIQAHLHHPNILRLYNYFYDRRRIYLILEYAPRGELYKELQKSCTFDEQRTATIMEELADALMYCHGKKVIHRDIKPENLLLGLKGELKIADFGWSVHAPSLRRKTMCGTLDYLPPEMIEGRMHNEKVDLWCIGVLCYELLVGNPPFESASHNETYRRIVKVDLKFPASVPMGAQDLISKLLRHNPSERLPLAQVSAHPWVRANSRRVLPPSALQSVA

[14] = molecular target: T1, Dual specificity tyrosine-phosphorylation-regulated kinase 1A; assay: Inhibition of DYRK1A (unknown origin) at 50 uM
[15] = molecular target: T6, MAP kinase-activated protein kinase 5 (Homo sapiens) (UniProt Q8IW41); assay: Inhibition of PRAK (unknown origin) at 50 uM
T6 sequence (whole entry): T3 sequence (Q8IW41 whole entry)

[16] = molecular target: T7, Dual specificity tyrosine-phosphorylation-regulated kinase 1A (Rattus norvegicus, UniProt Q63470); assay: Inhibition of rat DYRK1A using KKISGRLSPIMTEQ as substrate in presence of [gamma-33P]ATP after 30 mins by scintillation counting analysis
SW-620 = assay: cells; settings: Homo sapiens, SW-620, 96 h
[17] = molecular target: T7, Dual specificity tyrosine-phosphorylation-regulated kinase 1A; assay: Inhibition of rat recombinant GST-fused DYRK1A expressed in Escherichia coli in presence of [gamma-33P]ATP after 30 mins by scintillation counting analysis
[18] = molecular target: T1, Dual specificity tyrosine-phosphorylation-regulated kinase 1A; assay: Inhibition of human recombinant full length GST-tagged DYRK1A expressed in baculovirus expression system assessed as decrease in tau phosphorylation at S396 preincubated for 10 mins followed by tau addition by Western blot analysis
[19] = molecular target: T1, Dual specificity tyrosine-phosphorylation-regulated kinase 1A; assay: Inhibition of DYRK1A (unknown origin) by cell-based assay
[20] = molecular target: T2, Dual specificity tyrosine-phosphorylation-regulated kinase 1B; assay: Inhibition of DYRK1B (unknown origin)
[21] = molecular target: T1, Dual specificity tyrosine-phosphorylation-regulated kinase 1A; assay: Inhibition of GST-tagged DYRK1A (unknown origin) expressed in Escherichia coli DH5alpha using RRRFRPASPLRGPPK as substrate after 30 mins by kinase-glo luminescence assay

SMILES: N#Cc1ccc(-n2cnc3ccc(-c4ccncc4)cc32)cc1
inhibition [1]: 60 to 100%

SMILES: COC(=O)c1ccc(-n2cnc3ccc(-c4ccncc4)cc32)cc1
inhibition [1]: 60 to 100%

SMILES: O=C(O[C@@H]1Cc2c(O)cc(O)cc2O[C@@H]1c1cc(O)c(O)c(O)c1)c1cc(O)c(O)c(O)c1 [EPIGALOCATECHIN GALLATE]
IC50 [4]: 1000 nM

SMILES: Brc1c(Br)c(Br)c2[nH]cnc2c1Br
IC50 [5]: 2100 nM

SMILES: c1cc(-c2ccc3ncn(-c4ccc5[nH]cnc5c4)c3c2)ccn1
inhibition [1]: 60 to 100%

SMILES: CN1C(=O)/C(=C\c2ccc3c(c2)OCO3)N=C1N
IC50 [8]: 490 nM | IC50 [9]: 910 nM | IC50 [10]: 100 nM

SMILES: CS(=O)(=O)c1ccc(-n2cnc3ccc(-c4ccncc4)cc32)cc1
inhibition [1]: 60 to 100%

SMILES: COc1ccc2c3ccnc(Cl)c3n(CC#N)c2c1
IC50 [11]: > 10 µM | inhibition [12]: 90%

SMILES: COc1ccc(/C=C/C(=O)c2c(O)cc(OC)cc2OC)cc1
inhibition [13]: 84% | inhibition [14]: 90% | inhibition [15]: 91%

SMILES: O=C(O)c1ccc(-n2cnc3ccc(-c4ccncc4)cc32)cc1
inhibition [1]: 60 to 100%

SMILES: COc1cc2[nH]c(=O)c(C(=O)Nc3cc(C(=O)NCc4cccc(Cl)c4)ccc3C)cc2cc1CCCN1CCOCC1
EC50 (SW-620): 306 nM

SMILES: Cc1nccc2c1[nH]c1cc(O)ccc12
IC50 [18]: 90 nM

SMILES: CC(C)[C@H](CO)Nc1nc(Nc2cccc(Cl)c2)c2ncn(C(C)C)c2n1 [PURVALANOLA]
IC50 [19]: 300 nM

SMILES: COc1cc(-c2cc(=O)c3c(O)cc(O)c(C/C=C(\C)CCC=C(C)C)c3o2)ccc1O
IC50 [5]: 620 nM | IC50 [20]: 6.4 µM

SMILES: COc1ccc(-n2cnc3ccc(-c4ccncc4)cc32)cc1
inhibition [1]: 60 to 100%

SMILES: COc1ccc2c(c1)[nH]c1c(C)nccc12
inhibition [12]: > 60%

SMILES: NC(=O)c1ccc(-n2cnc3ccc(-c4ccncc4)cc32)cc1
inhibition [1]: 60 to 100%

Results, then the compound that gave them:

IC50 [2]: 24.1 nM
SMILES: N=C1NC(=O)/C(=C/c2ccc3c(c2)CCO3)S1

IC50 [3]: 10 nM
SMILES: CCOc1ccccc1CNc1nc(C)nc2[nH]cc(-c3ccnc(N)c3)c12

IC50 (Casein kinase 2): 32.3 µM
SMILES: Cc1cc(=O)oc2cc3cc(O)ccc3cc12

IC50 [5]: 400 nM
SMILES: CN(C)c1nc2c(Br)c(Br)c(Br)c(Br)c2[nH]1

IC50 [6]: 60 to 70 nM | IC50 [7]: 0.41 µM
SMILES: O=C1NC(Nc2ccccc2)=N/C1=C/c1ccc2c(c1)OCO2

IC50 (Casein kinase 2): 0.37 µM
SMILES: Cc1cc(=O)oc2cc3c([N+](=O)[O-])c(O)ccc3cc12

IC50 [16]: 610 nM
SMILES: O=c1[nH]c(NCCO)nc2ccc3[nH]ncc3c12

IC50 [17]: 1300 nM
SMILES: CC[C@H](CO)Nc1nc(NCc2ccccc2)n2ncc(C(C)C)c2n1

inhibition [12]: 92% | IC50 [21]: 81 nM
SMILES: COc1ccc2c3ccnc(C)c3n(CC#N)c2c1
